Source: US6492128B1, “Drug screen targeting lipoprotein-membrane anchorage” (Ramot University Authority for Applied Research & …, priority 1997, dated 2002)

Legend:
[1] = biological target: T1, oncogenic Ras in EJ cells (Homo sapiens, UniProt P01112, G12V); assay: Dislodging of Ras from membranes in intact EJ cells (particulate/cytosolic fractions, immunoblot); type: cell-based, rat
T1 construct: expressed in transfected cells; host or cells: Rat1 fibroblasts transformed with Ha-Ras (EJ cells)
Protocol: Ha-Ras transformed Rat1 cells (EJ cells) were plated at a density of 4×10^6 cells/10 cm dish. After 3 hr the cells were treated for 15 hr (dose response) or for 2, 6, 12, or 24 hr (time course) with FTS (0-50 μM, dose response) or (25 μM, time course) or (0.1% DMSO, control). The cells were then detached from the dishes and washed in phosphate-buffered saline (PBS). All the subsequent procedures were carried out at 4° C. The cell pellets were homogenized in […] of homogenization buffer 20 mM Tris-HCl, pH=7.6) leupeptine (5 μg/ml), pepstatine (5 μg/ml), benzamidine (1 μM), phenylmethyl-sulphonyl fluoride (1 mM), aprotinine (5 units/ml), and MgCI2 (10 mM). Total cell membranes (P100) and cytosol (S100) were obtained by a 100,000×g centrifugation step (30 min). Following resuspension of the P100 in 750 μl of homogenization buffer, both S100 and P100 received 75 μl of 10×immunoprecipitation buffer (100 mM Tris-HCl, pH=7.5, 1.5 M NaCl, 10% Triton X-100). Samples were frozen for 1 hr at −70° C. and then thawed. Insoluble material was removed by a 10 min 10,000×g spin and the clear supernatant was used for immunoprecipitation. Samples containing 500 μg protein of P100 and the equivalent amount of S100 protein, were incubated for 12 hr with 2 μg of Y13-259 antibodies coupled to agarose bends (Oncogene Science). The beads were then precipitated and washed four times with 1 ml of immunoprecipitation buffer, twice with 1 ml of 20 mM Tris-HCl, pH=7.6, and then resuspended in 20 μl of SDS-sample buffer. Proteins were then separated by 12.5% SDS-PAGE (mini gels) and blotted onto nitrocellulose paper. The paper was blocked with 10% skimmed milk in tris-buffered saline and then incubated for 7 hr with rabbit anti-Ras serum diluted 1:1000 with tris buffered saline containing 10 mg/ml bovine serum albumin and 0.05% tween-20 (anti-Ras antiserum was prepared by immunizing rabbits with recombinant human-Ha-Ras (Marom et al.). Immunoblots were then incubated for 1 hr with 1:5000 dilution of goat anti-rabbit IgG-horseradish peroxidase (HRP) conjugate (Sigma) and developed by exposing to ECL.
Here, EJ cells were plated at a density of 4×10^6 cells/10 cm dish. The plated cells were cultured for 3 hours and then received new media containing 0.1% DMSO with or without 25 μM FTS. The cells were further cultured for 2, 4, 12, or 24 hours before harvesting and fractionation into particulate and cytosolic fractions. Ras proteins were immunoprecipitated from the fractions, subjected to SDS-PAGE, immunoblotted and developed with ECL as described in the methods, supra. The density of the bands produced from the particulate fraction (FIG. 3A) and the cytosolic fraction (FIG. 3B) was measured with a scanning densitometer. The data obtained from the densitometric analysis are presented in FIG. 3C as the ratio of values of test (FTS treated) over control (DMSO only) cells. The mean values of three separate experiments are shown.
Referring to FIGS. 4A and 4B, the effect of FTS in dislodging Ras from EJ cell membranes was investigated for dose dependence. Here, Ras protein concentration was determined in the particulate fraction of EJ cells that were exposed to the indicated concentrations of FTS (0-50 μM) and AFC (50 μM) for 15 hours as detailed for FIG. 3, supra. The densitometric analysis of the immunoblot bands shown in FIG. 4A are presented in FIG. 4B as mean % of control of three experiments.

[2] = tested on: total oncogenic Ras in EJ cells; assay: Total cellular Ras in EJ cells (immunoblot of total homogenate); type: cell-based, rat; conditions: 15 hours, total cell homogenate; read-out: EC50 for decrease in the total amount of Ras in EJ cells
Protocol: In experiments where the total amount of Ras was estimated, the cells were homogenized as detailed above and samples of the total cell-homogenate (15 μg protein) were loaded onto the gel. For immunoblotting, we have also used the pan-Ras Ab (Calbiochem) at a 1:2000 dilution, and anti-mouse IgG-HRP at a 1:7500 dilution. To develop, the blots were exposed to ECL. The same immunoblotting procedure was also used in the cell-free system experiments. If Ras is degraded after it is dislodged, total cellular Ras should fall after FTS treatment. To investigate this, EJ cells were incubated for 15 hours, with various concentrations of FTS as detailed in FIG. 3, supra, then homogenized and total cell Ras measured by immunoblot assay. FTS caused a dose dependent decrease in the total amount of Ras in treated EJ cells. Densitometric analysis of data, such as that of FIG. 5A, is presented in FIG. 5B as the mean percent of control of 3 experiments. The EC5O was 15 μM (FIG. 5B), which is similar to that determined for the effect of FTS on particulate Ras.

normal Ras in Rat1 cells = assay: Ras (total and particulate) in Rat1 cells; type: cell-based, rat
Protocol: In experiments where the total amount of Ras was estimated, the cells were homogenized as detailed above and samples of the total cell-homogenate (15 μg protein) were loaded onto the gel. For immunoblotting, we have also used the pan-Ras Ab (Calbiochem) at a 1:2000 dilution, and anti-mouse IgG-HRP at a 1:7500 dilution. To develop, the blots were exposed to ECL. The same immunoblotting procedure was also used in the cell-free system experiments. The effect of FTS on total Ras in Rat1 cells (Rat1 cells have normal rather than oncogenic Ras) was also examined using the same procedures and conditions as that used for EJ cells in FIGS. 5A & 5B. […] However, dislodging normal Ras in Rat1 cells required 50 μM FTS whereas the oncogenic Ras found in EJ cell is dislodged at lower concentrations of the drug (FIG. 5A). Thus, FTS may have some selectivity towards the activated forms of Ras. This may account for the fact that FTS is not toxic at doses that inhibit the growth of Ras dependent cells and tumors (see toxicology section below.)

[3] = tested on: G protein β (Gβ) in EJ cell membranes; assay: Immunoblotting of Gβ in EJ cell membranes; type: cell-based, rat; conditions: same conditions as for Ras detection
Protocol: The level of G protein β (Gβ) was determined in membranes of EJ cells that were grown in the absence and in the presence of FTS in the same conditions that were used for Ras detection. A sample of 25 μg membrane proteins were separated by SDS-PAGE (12.5%), and blotted to nitrocellulose paper. Immunoblots were performed by using rabbit anti Gβ antibodies (dilution of 1:1000) as a first antibody and goat anti rabbit IgG HRP (Sigma) as a second antibody (dilution of 1:5000). To develop, the blots were exposed to ECL.

[4] = biological target: T2, oncogenic Ras in isolated EJ cell membranes (Homo sapiens, UniProt P01112, G12V); assay: Cell-free assay: dislodging of Ras from isolated EJ cell membranes; type: biochemical, rat; conditions: for Dislodging of Ras (% of control) in a cell free system (10 μM drug): isolated EJ cell membranes, Ras in pellet; for dislodging of Ras from isolated membrane: 10 μM
T2 construct: expressed in transfected cells; host or cells: Rat1 fibroblasts transformed with Ha-Ras (EJ cells)
Protocol: The cell-free assay is utilized in these next experiments; i.e. the effect of FTS on Ras in isolated membranes was investigated. Briefly, we used EJ cell membranes (total particulate fraction) prepared in homogenization buffer (10 mM Tris-HCl, pH 8.5, 0.32 M sucrose) with protease inhibitors. The membranes were stored in aliquot at −70° C. and thawed prior to use. In a standard assay, membranes containing 15 μg of protein are incubated in a total volume of 100 μl of homogenization buffer with or without drug for 60 min at 37° C. The drugs are prepared freshly in 100% DMSO, and diluted with 50 mM Tris-HCl pH 8.5 to yield 5× drug concentration in 10% DMSO. It is important to prepare these solutions at room temperature, otherwise the drugs may precipitate. The drug solutions (20 μl) are pipetted into the assay tubes, the membrane/buffer mixtures (80 μl) are quickly added, the tubes are gently mixed, and the tubes are transferred to a 37° C. shaking water bath. The reactions are stopped by addition of 900 μl of cold homogenization buffer (without sucrose) containing 10 μg BSA. Following a 5 min incubation at room temperature, the membranes are pelleted by centrifugation in a benchtop microfuge (14,000 rpm). The supernatants are removed and the pellets are subjected to mini-SDS-PAGE followed by Immunoblotting (pan anti-Ras antibodies) and ECL assays. These assays are detailed infra. It is considered preferable to perform the reactions at 25-37° C. and to use relatively small amounts of membrane protein in the assay. Another preference is to dilute the membranes in a solution containing BSA at the end of the reaction period.

EJ cells = assay: Inhibition of EJ cells growth; type: cell-based, rat
[5] = Toxicity / cytotoxicity of FTS
[6] = tested on: Erb B2 and Ha-Ras-transformed cells; conditions: cited from earlier work
[7] = tested on: v-raf or T-antigen transformed cells; conditions: cited from earlier work
Ras = conditions: cited from earlier work
[8] = FTS 5-50 μM; cited from earlier work

## CC(C)=CCCC(C)=CCCC(C)=CCSc1ccccc1C(=O)O [FTS, Farnesylthiosalicylic acid]
[1]; FTS 25 μM, 2 to 6 hours after exposure, transient
  cytosolic Ras after exposure: significant increase in cytosolic Ras
[1]; FTS 25 μM, after 24 hours, EJ cells, densitometry, 3 experiments
  decrease in the amount of particulate Ras versus control levels: 80%
[1]; cell membranes
  concentration range that will produce maximal displacement of Ras: 10 to 50 µM
  concentrations required to dislodge Ras from cell membranes: < 25 µM
[1]; intact EJ cells, 15 hours, 0-50 μM, read-out: EC50 for dislodging Ras from EJ cell membranes (particulate Ras)
  EC50: ~10 µM
[2]
  EC50: 15 µM
Normal Ras in Rat1 cells; particulate Ras, Rat1 cells
  concentration required for dislodging normal Ras in Rat1 cells: 50 µM
Normal Ras in Rat1 cells; same conditions as EJ cells, dose response shifted to the right
  effect on total Ras in Rat1 cells: significant decrease in Ras
[3]
  amount of Gβ associated with EJ cell membranes: did not reduce the amount of Gβ
[4]
  Dislodging of Ras (% of control) in a cell free system (10 μM drug): 56 % of control
[4]; cell free, 60 min at 37° C.
  EC50: 10 to 15 µM
EJ cells; Rattus norvegicus, EJ
  EC50: 7.5 ± 3.7 µM
[5]
  toxicity at doses that inhibit the growth of Ras dependent cells and tumors: not toxic
[6]
  concentration range of dose-dependent growth inhibition: 1-25 μm
[7]
  effect on growth of v-raf or T-antigen transformed cells: does not affect the growth
Ras
  inhibition of farnesylation or methylation of Ras in intact cells: does not inhibit farnesylation or methylation of Ras
[8]
  cytotoxicity at growth-inhibiting concentrations: without producing cytotoxicity

## CC(C)=CCC/C(C)=C/CC/C(C)=C/CSc1c(Cl)cccc1C(=O)O [3-CI-FTS]
[4]
  Dislodging of Ras (% of control) in a cell free system (10 μM drug): 109 % of control
[4]; cell free
  dislodging of Ras from isolated membrane: did not dislodge Ras
EJ cells; EJ cells
  EC50: > 50 µM

## CC(C)=CCCC(C)=CCCC(C)=CCSc1cc(Cl)ccc1C(=O)O [4-Cl-FTS]
[4]
  Dislodging of Ras (% of control) in a cell free system (10 μM drug): 85 % of control
EJ cells; EJ cells
  EC50: 28 ± 3 µM

## COC(=O)c1ccccc1SCC=C(C)CCC=C(C)CCC=C(C)C [FMTS, carboxymethyl FTS]
[4]
  Dislodging of Ras (% of control) in a cell free system (10 μM drug): 110 % of control
[4]; cell free
  dislodging of Ras from isolated membrane: did not dislodge Ras
EJ cells; EJ cells
  Inhibition of EJ cells Growth EC50 (μM): Not active at 50 μM

## CC(C)=CCC/C(C)=C/CSc1ccccc1C(=O)O [GTS, geranyl thiosalicylic acid]
[4]
  Dislodging of Ras (% of control) in a cell free system (10 μM drug): 100 % of control
[4]; cell free
  dislodging of Ras from isolated membrane: did not dislodge Ras
EJ cells; EJ cells
  Inhibition of EJ cells Growth EC50 (μM): Not active at 50 μM

## CC(C)=CCC/C(C)=C/CC/C(C)=C/CSc1ccc(Cl)cc1C(=O)O [5-Cl-FTS]
[4]
  Dislodging of Ras (% of control) in a cell free system (10 μM drug): 87 % of control
EJ cells; EJ cells
  EC50: 8.5 ± 2.4 µM
